This is an account of results in patent US12552783B2, “Modulators of proteolysis and associated methods of use” (Arvinas Operations, Inc., priority 2018, dated 2026).

Type in all cases: cell-based
Assay [1] addresses T1, KRas (Homo sapiens, UniProt P01116, G12C). Nature of the assay: KRas degradation in H2030 cells by Western blot (data of Table 5). The following applies: H2030 cells serum starved 24 hours, KRas immunoblot; for H2030 Degradation at 0.3 uM: treated 24 hours with 0.3 uM; for H2030 Degradation at 1 uM: treated 24 hours with 1 uM; for H2030 Degradation at 3 uM: treated 24 hours with 3 uM. More on the design: host or cells: NCI-H2030. The method, then: Cell Lines, Antibodies, and Reagents. NCI-H2030 (CRL-5914) and SW1573 (CRL-2170) cells were purchased from ATCC. Both cell lines are homozygous for the G12C mutation in KRas. NCI-H2030 cells were cultured in RPMI-1640 medium containing 1% penicillin-streptomycin and 10% fetal bovine serum (FBS). SW1573 cells were cultured in DMEM containing 1% penicillin-streptomycin and 10% FBS. The KRas detection antibody (Cat. No. LS-C175665) was purchased from LifeSpan Biosciences and was used at a dilution of 1:2000. GAPDH was detected using an antibody purchased from Cell Signaling Technology (Cat. No. 5174) and was diluted 1:3000. Secondary anti-mouse and anti-rabbit detection antibodies were purchased from Cell Signaling Technology (Cat. Nos. 7076 and 7074, respectively).
Compound Treatment and Western Blotting of the Data of Table 5. H2030 cells in 12-well plates were serum starved for 24 hours, and then treated with 0.3 uM, 1 uM, and 3 uM of the indicated bifunctional compound, for 24 hours. Cells were lysed in a Cell Signaling Technology Cell Lysis Buffer (Cat. No. #9803) supplemented with protease inhibitors, and proteins were separated by SDS-PAGE. KRas was detected by immunoblotting using the LSBio antibody (Cat. No. LS-C175665).
DC50 is the half-maximal degradation concentration—i.e., the concentration at which 50% degradation is observed. DMax is the maximum degradation efficacy is achieved—i.e., the maximal degradation observed) degradation data.
A general note: A western blot detects proteins with antibodies after separation by electrophoresis.

Assay [2] has as its target T1, KRas. The assay can be described thus: KRas degradation in SW1573 cells by Western blot, normalized to GAPDH (data of Table 14). The following applies: SW1573 cells. An outline of the steps: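 SW1573 cells, homozygous for the KRas G12C mutation and maintained in DMEM with 10% FBS and 1% penicillin-streptomycin, were seeded in 12-well plates, allowed to attach overnight at 37° C. under 5% CO2, then serum-starved for 24 hours before compound exposure. KRas levels were measured by Western blot, normalized to GAPDH, and compared with DMSO controls to give percent degradation, DC50 and Dmax.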

The target of assay [3] is T1, KRas. Nature of the assay: KRas degradation in NCI-H2030 cells by Western blot, normalized to GAPDH (data of Table 14). Also on record: host or cells: NCI-H2030. The conditions noted are these: H2030 cells; for Dmax: NCI-H2030. An outline of the steps: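 After overnight adherence and 24 h without FBS, compounds added at 0.3, 1 or 3 μM (0.1% DMSO) for 24 h (VHL-based) or 72 h (others). Western blot of RIPA lysates, KRas signal over GAPDH relative to DMSO; DC50 and DMax derived, or <25% scored visually.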

As to `C=CC(=O)N1CCN(c2nc(NCCC(=O)N(C)CCOCCOCCOCCOCCOc3ccc4c(c3)CN(C3CCC(=O)NC3=O)C4=O)nc3c(F)c(-c4cc(O)cc5ccccc45)c(Cl)cc23)CC1` (stereo not shown) [compound 5, 3-((4-(4-acryloylpiperazin-1-yl)-6-chloro-8-fluoro-7-(3-hydroxynaphthalen-1-yl)quinazolin-2-yl)amino)-N-(14-((2-(2,6-dioxopiperidin-3-yl)-1-oxoisoindolin-5-yl)oxy)-3,6,9,12-tetraoxatetradecyl)-N-methylpropanamide], in assay [1], the “H2030 Degradation at 0.3 uM” value is “C (C < 25)”, the “H2030 Degradation at 1 uM” value is listed as “B (25 ≤ B < 50)” and the “H2030 Degradation at 3 uM” value is recorded as “B (25 ≤ B < 50)”.
For the molecule `CCC(=O)N1CCN(c2nc(NCCC(=O)N(C)CCOCCOCCOCC(=O)N[C@H](C(=O)N3C[C@H](O)C[C@H]3C(=O)N[C@@H](C)c3ccc(-c4scnc4C)cc3)C(C)(C)C)nc3c(F)c(-c4cc(O)cc5ccccc45)c(Cl)cc23)CC1` [compound 9, (2S,4R)-1-((S)-2-(tert-butyl)-18-((6-chloro-8-fluoro-7-(3-hydroxynaphthalen-1-yl)-4-(4-propionylpiperazin-1-yl)-5H-312-quinazolin-2-yl)amino)-15-methyl-4,16-dioxo-6,9,12-trioxa-3,15-diazaoctadecanoyl)-4-hydroxy-N-((S)-1-(4-(4-methyl-312-thiazol-5-yl)phenyl)ethyl) pyrrolidine-2-carboxamide], in assay [1], the “H2030 Degradation at 0.3 uM” value is listed as “C (C < 25)”, the “H2030 Degradation at 1 uM” value is recorded as “C (C < 25)” and the “H2030 Degradation at 3 uM” value was “C (C < 25)”.
Turning to `C=CC(=O)N1CCN(c2nc(NCCC(=O)N(C)CCOCCOCCOCC(=O)N[C@H](C(=O)N3C[C@H](O)C[C@H]3C(=O)N[C@@H](C)c3ccc(-c4scnc4C)cc3)C(C)(C)C)nc3c(F)c(-c4cc(O)cc5ccccc45)c(Cl)cc23)CC1` [compound 4, (2S,4R)-1-((2S)-18-((4-(4-acryloylpiperazin-1-yl)-6-chloro-8-fluoro-7-(3-hydroxynaphthalen-1-yl)quinazolin-2-yl)amino)-2-(tert-butyl)-15-methyl-4,16-dioxo-6,9,12-trioxa-3,15-diazaoctadecanoyl)-4-hydroxy-N-((S)-1-(4-(4-methylthiazol-5-yl)phenyl)ethyl) pyrrolidine-2-carboxamide], in assay [1], the “H2030 Degradation at 0.3 uM” value is recorded as “C (C < 25)”, the “H2030 Degradation at 1 uM” value was “B (25 ≤ B < 50)” and the “H2030 Degradation at 3 uM” value is “B (25 ≤ B < 50)”.
The DC50 is the midpoint of the concentration-degradation curve. Read a high DC50 as a less potent degrader. One may read the Dmax as the largest share of the target that was removed. In turn, `C=CC(=O)N1CCN(c2nc(O[C@H](C)CN3CCC(OCCOCCOCCOCC(=O)N[C@H](C(=O)N4C[C@H](O)C[C@H]4C(=O)N[C@@H](C)c4ccc(-c5scnc5C)cc4)C(C)(C)C)CC3)nc3c(F)c(-c4cc(O)cc5ccccc45)c(Cl)cc23)CC1` [compound 400, (2S ,4R)-1-((2S)-14-((1-((2R)-2-((4-(4-acryloylpiperazin-1-yl)-6-chloro-8-fluoro-7-(3-hydroxynaphthalen-1-yl)quinazolin-2-yl)oxy)propyl)piperidin-4-yl)oxy)-2-(tert-butyl)-4-oxo-6,9,12-trioxa-3-azatetradecanoyl)-4-hydroxy-N-((S)-1-(4-(4-methylthiazo1-5-yl)phenyl)ethyl)pyrrolidine-2-carboxamide] returned a DC50 in assay [2] of at least 1000 nM. In addition, the greatest degradation seen (Dmax) in assay [2] and in assay [3] was at most 35% each time. For the same molecule, the “Percent Degradation at Indicated Concentration (μM)” value (from here on “Percent Degradation”) in assay [2] (0.01 μM), in assay [2] (0.03 μM), in assay [2] (0.1 μM), in assay [2] (0.3 μM), in assay [2] (1 μM) and in assay [3] (0.3 μM) was “C (Percent Degradation: C ≤ 35)” each time. Further, the “Percent Degradation” value in assay [3] (1 μM) and in assay [3] (3 μM) was “C (Percent Degradation: C ≤ 35)” in each case.
For `C=CC(=O)N1CCN(c2nc(NCCC(=O)N(C)CCOCCOCCOCCOCC(=O)N[C@H](C(=O)N3C[C@H](O)C[C@H]3C(=O)N[C@@H](C)c3ccc(-c4scnc4C)cc3)C(C)(C)C)nc3c(F)c(-c4cc(O)cc5ccccc45)c(Cl)cc23)CC1` [compound 1, (2S,4R)-1-((2S)-21-((4-(4-acryloylpiperazin-1-yl)-6-chloro-8-fluoro-7-(3-hydroxynaphthalen-1-yl)quinazolin-2-yl)amino)-2-(tert-butyl)-18-methyl-4,19-dioxo-6,9,12,15-tetraoxa-3,18-diazahenicosanoyl)-4-hydroxy-N-((S)-1-(4-(4-methylthiazol-5-yl)phenyl)ethyl) pyrrolidine-2-carboxamide], in assay [1], the “H2030 Degradation at 0.3 uM” value is listed as “C (C < 25)”, the “H2030 Degradation at 1 uM” value is “A (A ≥ 50)” and the “H2030 Degradation at 3 uM” value is “A (A ≥ 50)”.
Take `C=CC(=O)N1CCN(c2nc(NCCC(=O)N(C)CCOCCOCCOCCNc3cccc4c3C(=O)N(C3CCC(=O)NC3=O)C4=O)nc3c(F)c(-c4cc(O)cc5ccccc45)c(Cl)cc23)CC1` (stereo not shown) [compound 3, 3-((4-(4-acryloylpiperazin-1-yl)-6-chloro-8-fluoro-7-(3-hydroxynaphthalen-1-yl)quinazolin-2-yl)amino)-N-(2-(2-(2-(2-((2-(2,6-dioxopiperidin-3-yl)-1,3-dioxoisoindolin-4-yl)amino)ethoxy)ethoxy)ethoxy)ethyl)-N-methylpropanamide]: in assay [1], the “H2030 Degradation at 0.3 uM” value is recorded as “C (C < 25)”, the “H2030 Degradation at 1 uM” value is listed as “B (25 ≤ B < 50)” and the “H2030 Degradation at 3 uM” value is “B (25 ≤ B < 50)”.
In assay [2], `C=CC(=O)N1CCN(c2nc(O[C@H](C)CN3CCC(OCCOCC(=O)N[C@H](C(=O)N4C[C@H](O)C[C@H]4C(=O)N[C@@H](C)c4ccc(-c5scnc5C)cc4)C(C)(C)C)CC3)nc3c(F)c(-c4cc(O)cc5ccccc45)c(Cl)cc23)CC1` [compound 398, (2S,4R)-1-((2S)-2-(2-(2-((1-((2R)-2-((4-(4-acryloylpiperazin-1-yl)-6-chloro-8-fluoro-7-(3-hydroxynaphthalen-1-yl)quinazolin-2-yl)oxy)propyl)piperidin-4-yl)oxy)ethoxy)acetamido)-3,3-dimethylbutanoyl)-4-hydroxy-N-((S)-1-(4-(4-methylthiazol-5-yl)phenyl)ethyl)pyrrolidine-2-carboxamide] showed a half-maximal degradation concentration (DC50) below 100 nM. Besides, the Dmax in assay [2] is 35 to 70%; in assay [3] it was at most 35%. Moreover, the “Percent Degradation” value is reported as “C (Percent Degradation: C ≤ 35)” in assay [2] (0.01 μM); “B (35 < B < 70)” in assay [2] (0.03 μM); “B (35 < B < 70)” in assay [2] (0.1 μM); “B (35 < B < 70)” in assay [2] (0.3 μM); “C (Percent Degradation: C ≤ 35)” in assay [2] (1 μM); “C (Percent Degradation: C ≤ 35)” in assay [3] (0.3 μM). Further, the “Percent Degradation” value in assay [3] (1 μM) and in assay [3] (3 μM) was “C (Percent Degradation: C ≤ 35)” in each case.
`C=CC(=O)N1CCN(c2nc(NCCC(=O)N(C)CCOCCOCCOCCOCCOCC(=O)N[C@H](C(=O)N3C[C@H](O)C[C@H]3C(=O)N[C@@H](C)c3ccc(-c4scnc4C)cc3)C(C)(C)C)nc3c(F)c(-c4cc(O)cc5ccccc45)c(Cl)cc23)CC1` [compound 2, (2S,4R)-1-((2S)-24-((4-(4-acryloylpiperazin-1-yl)-6-chloro-8-fluoro-7-(3-hydroxynaphthalen-1-yl)quinazolin-2-yl)amino)-2-(tert-butyl)-21-methyl-4,22-dioxo-6,9,12,15,18-pentaoxa-3,21-diazatetracosanoyl)-4-hydroxy-N-((S)-1-(4-(4-methylthiazol-5-yl)phenyl)ethyl) pyrrolidine-2-carboxamide]: in assay [1], the “H2030 Degradation at 0.3 uM” value was “C (C < 25)”, the “H2030 Degradation at 1 uM” value is recorded as “A (A ≥ 50)” and the “H2030 Degradation at 3 uM” value is “A (A ≥ 50)”.
